{"source": "paper PMC8533299", "about": "“Synthesis, In Silico Study, and Anti-Cancer Activity of Thiosemicarbazone Derivatives” (Biomedicines, 2021)", "key": {"[1]": {"system": "gene expression in EAC cells", "experiment": "RT-qPCR gene expression in EAC cells", "type": "cell-based, mouse", "experimental": "(§1) Total mRNA was isolated and extracted by Trizol reagent as described in an earlier method. RevertAid First Strand cDNA synthesis kit (Thermo Fisher Scientific, Waltham, MA, USA) was used to synthesize cDNA in a total reaction volume of 20 μL containing oligo-dT primers, RiboLock RNase inhibitor, and reverse transcriptase. Gene-specific primers were used to amplify cDNAs in RT-qPCR machine (Applied Biosystems, Waltham, MA, USA)."}, "[2]": {"system": "mouse Ehrlich Ascites Carcinoma (EAC)", "experiment": "MTT test on EAC cells", "type": "cell-based", "experimental": "(§2) The in vitro anticancer activities of the synthesized compounds were conducted using different cancerous and non-cancerous cell lines viz B16-F0 (Mouse melanoma), mouse Ehrlich Ascites Carcinoma (EAC), MCF-7 (Human breast cancer), MCF-10A (Human breast epithelial cells), and NIH/3T3 (Mouse fibroblast cells). All cell lines were procured from the National Centre for Cell Science, Pune, India. The procured cells were cultured in a six-well culture plate with Dulbecco’s Modified Eagle’s Medium (DMEM) supplemented with 10% fetal bovine serum in a humid CO2 incubator with 5% carbon dioxide at 37 °C.\n(§3) The anti-cancer effect and cytotoxicity of both 3-MBTSc and 4-NBTSc compounds were evaluated against different cancerous (MCF-7, EAC, B16-F0 cells) and noncancerous cells (MCF-10A, NIH-3T3 cells) using MTT test. In brief, the stock solutions of both the tested compounds were prepared by dissolving 1 mg of each compound in 1 mL of DMSO separately. Then, four different concentrations (5, 10, 12, and 20 µg/mL) of both compounds were used during the test along with the negative control. Also, 10 μg/mL of doxorubicin (Dox) was used as the positive control during the experiment. Both untreated and treated cells were incubated for next 24 and 48 h. Then, all the steps during the whole experiment were carried out by our earlier reported procedure. Later, the absorbance values were measured by an ELISA reader (Biorad, Hercules, CA, USA) at 570 nm wavelength using secondary wavelength as a reference at 620 nm and the percentages of cell viability was calculated using the following formula [59, 60, 61]. Cell viability (%)= Mean absorbance of treated cells/Mean absorbance of untreated cells × 100\n(§4) Based on the cell viability data, the IC50 values of both compounds were calculated on different cancer cells by plotting their corresponding dose-responsive graphs.\n(§5) The obtained data were statistically analyzed. The descriptive analysis was done and the IC50 values were calculated by fitting the sigmoidal dose responsive graph using GraphPad Prism (GraphPad Software, Inc., La Jolla, CA, USA). […]"}, "[3]": {"system": "MCF-10A (Human breast epithelial cells)", "experiment": "MTT cytotoxicity test on MCF-10A cells", "type": "cell-based", "conditions": "48 h", "experimental": "as §2, §3"}, "[4]": {"experiment": "MTT cytotoxicity test on MCF-10A cells", "type": "cell-based, Human", "conditions": "human, MCF-10A breast epithelial cells", "experimental": "as §2, §3"}, "B16-F0 (Mouse melanoma)": {"system": "B16-F0 (Mouse melanoma)", "experiment": "MTT test on B16-F0 cells", "type": "cell-based", "experimental": "as §2, §3, §4, §5"}, "[5]": {"system": "gene expression in B16-F0 melanoma cells", "experiment": "RT-qPCR gene expression in B16-F0 cells", "type": "cell-based, Mouse", "experimental": "as §1"}, "[6]": {"system": "NIH/3T3 (Mouse fibroblast cells)", "experiment": "MTT cytotoxicity test on NIH-3T3 cells", "type": "cell-based", "conditions": "48 h", "experimental": "as §2, §3"}, "[7]": {"conditions": "EAC cells treated, GAPDH housekeeping gene"}, "[8]": {"conditions": "EAC cells, difference of RQ values"}, "[9]": {"conditions": "B16-F0 cells treated, GAPDH housekeeping gene"}, "[10]": {"conditions": "B16-F0 cells, difference of RQ values"}}, "note": "Several values for one entry are separate records, joined by “and”; a condition that tells them apart may be missing. Equal values may be shown once.", "data": [{"smiles": "COc1cccc(C=NNC(N)=S)c1", "note": "[3-MBTSc, 3-Methoxybenzaldehyde thiosemicarbazone]", "values": [{"measurement": "BCl2 Treated (RQ value)", "setting": "[1]; [7]", "value": "7.195 ± 0.021"}, {"measurement": "BRCA1 Treated (RQ value)", "setting": "[1]; [7]", "value": "4.305 ± 0.021"}, {"measurement": "Bax Treated (RQ value)", "setting": "[1]; [7]", "value": "5.195 ± 0.021"}, {"measurement": "Caspase-3 Treated (RQ value)", "setting": "[1]; [7]", "value": "3.095 ± 0.035"}, {"measurement": "Dmp1 Treated (RQ value)", "setting": "[1]; [7]", "value": "6.9 ± 0.028"}, {"measurement": "Fos Treated (RQ value)", "setting": "[1]; [7]", "value": "4.22 ± 0.014"}, {"measurement": "MTS 1 Treated (RQ value)", "setting": "[1]; [7]", "value": "1.1 ± 0.028"}, {"measurement": "Mdm2 Treated (RQ value)", "setting": "[1]; [7]", "value": "4.145 ± 0.035"}, {"measurement": "PKC Treated (RQ value)", "setting": "[1]; [7]", "value": "7.105 ± 0.021"}, {"measurement": "PTEN Treated (RQ value)", "setting": "[1]; [7]", "value": "4.205 ± 0.035"}, {"measurement": "RAS Treated (RQ value)", "setting": "[1]; [7]", "value": "3.215 ± 0.021"}, {"measurement": "p19 Arf Treated (RQ value)", "setting": "[1]; [7]", "value": "4.73 ± 0.028"}, {"measurement": "p21 Treated (RQ value)", "setting": "[1]; [7]", "value": "5.19 ± 0.028"}, {"measurement": "pRB Treated (RQ value)", "setting": "[1]; [7]", "value": "3.575 ± 0.021"}, {"measurement": "BCl2 Fold Change (EAC treated-EAC untreated)", "setting": "[1]; [8]", "value": 4.105, "unit": "fold"}, {"measurement": "BRCA1 Fold Change (EAC treated-EAC untreated)", "setting": "[1]; [8]", "value": 2.245, "unit": "fold"}, {"measurement": "Bax Fold Change (EAC treated-EAC untreated)", "setting": "[1]; [8]", "value": 2.145, "unit": "fold"}, {"measurement": "Caspase-3 Fold Change (EAC treated-EAC untreated)", "setting": "[1]; [8]", "value": 0.195, "unit": "fold"}, {"measurement": "Dmp1 Fold Change (EAC treated-EAC untreated)", "setting": "[1]; [8]", "value": 4.75, "unit": "fold"}, {"measurement": "Fos Fold Change (EAC treated-EAC untreated)", "setting": "[1]; [8]", "value": -3.92, "unit": "fold"}, {"measurement": "MTS 1 Fold Change (EAC treated-EAC untreated)", "setting": "[1]; [8]", "value": -0.805, "unit": "fold"}, {"measurement": "Mdm2 Fold Change (EAC treated-EAC untreated)", "setting": "[1]; [8]", "value": -1.06, "unit": "fold"}, {"measurement": "PKC Fold Change (EAC treated-EAC untreated)", "setting": "[1]; [8]", "value": -3.03, "unit": "fold"}, {"measurement": "PTEN Fold Change (EAC treated-EAC untreated)", "setting": "[1]; [8]", "value": 2.975, "unit": "fold"}, {"measurement": "RAS Fold Change (EAC treated-EAC untreated)", "setting": "[1]; [8]", "value": -3.725, "unit": "fold"}, {"measurement": "p19 Arf Fold Change (EAC treated-EAC untreated)", "setting": "[1]; [8]", "value": 1.98, "unit": "fold"}, {"measurement": "p21 Fold Change (EAC treated-EAC untreated)", "setting": "[1]; [8]", "value": 4.195, "unit": "fold"}, {"measurement": "p53 Fold Change (EAC treated-EAC untreated)", "setting": "[1]; [8]", "value": 2.1, "unit": "fold"}, {"measurement": "pRB Fold Change (EAC treated-EAC untreated)", "setting": "[1]; [8]", "value": 1.67, "unit": "fold"}, {"measurement": "inhibition of cell growth", "setting": "[2]; EAC cell line, MTT assay", "value": 50.31, "unit": "%"}, {"measurement": "IC50", "setting": "[2]; Mus musculus, Ehrlich, EAC cells, MTT, till 48 h", "value": "3.355 ± 0.012", "unit": "µg/mL"}, {"measurement": "toxicity", "setting": "[3]", "value": "less than 20%"}, {"measurement": "viability at 48 h", "setting": "[4]", "value": "> 80", "unit": "%"}, {"measurement": "inhibition of cell growth", "setting": "B16-F0 (Mouse melanoma); B16-F0 cell line, MTT assay", "value": 50.42, "unit": "%"}, {"measurement": "IC50", "setting": "B16-F0 (Mouse melanoma); Mus musculus, B16F0, B16-F0 cells, MTT, till 48 h", "value": "2.904 ± 0.013", "unit": "µg/mL"}, {"measurement": "BCl2 Treated (RQ value)", "setting": "[5]; [9]", "value": "2.14 ± 0.028"}, {"measurement": "BRCA1 Treated (RQ value)", "setting": "[5]; [9]", "value": "1.14 ± 0.028"}, {"measurement": "Bax Treated (RQ value)", "setting": "[5]; [9]", "value": "3.095 ± 0.021"}, {"measurement": "Caspase-3 Treated (RQ value)", "setting": "[5]; [9]", "value": "6.105 ± 0.021"}, {"measurement": "Dmp1 Treated (RQ value)", "setting": "[5]; [9]", "value": "5.19 ± 0.028"}, {"measurement": "Fos Treated (RQ value)", "setting": "[5]; [9]", "value": "3.135 ± 0.021"}, {"measurement": "MTS 1 Treated (RQ value)", "setting": "[5]; [9]", "value": "6.14 ± 0.042"}, {"measurement": "Mdm2 Treated (RQ value)", "setting": "[5]; [9]", "value": "5.105 ± 0.021"}, {"measurement": "PKC Treated (RQ value)", "setting": "[5]; [9]", "value": "5.13 ± 0.028"}, {"measurement": "PTEN Treated (RQ value)", "setting": "[5]; [9]", "value": "4.94 ± 0.028"}, {"measurement": "RAS Treated (RQ value)", "setting": "[5]; [9]", "value": "4.16 ± 0.028"}, {"measurement": "p19 Arf Treated (RQ value)", "setting": "[5]; [9]", "value": "5.125 ± 0.021"}, {"measurement": "p21 Treated (RQ value)", "setting": "[5]; [9]", "value": "5.115 ± 0.021"}, {"measurement": "p53 Treated (RQ value)", "setting": "[5]; [9]", "value": "5.185 ± 0.035"}, {"measurement": "pRB Treated (RQ value)", "setting": "[5]; [9]", "value": "1.105 ± 0.007"}, {"measurement": "BCl2 Fold Change (B16-F0 treated-B16-F0 untreated)", "setting": "[5]; [10]", "value": 0.050, "unit": "fold"}, {"measurement": "BRCA1 Fold Change (B16-F0 treated-B16-F0 untreated)", "setting": "[5]; [10]", "value": -0.660, "unit": "fold"}, {"measurement": "Bax Fold Change (B16-F0 treated-B16-F0 untreated)", "setting": "[5]; [10]", "value": 0.360, "unit": "fold"}, {"measurement": "Caspase-3 Fold Change (B16-F0 treated-B16-F0 untreated)", "setting": "[5]; [10]", "value": "3.505 fold and 3.50 fold"}, {"measurement": "Dmp1 Fold Change (B16-F0 treated-B16-F0 untreated)", "setting": "[5]; [10]", "value": 2.700, "unit": "fold"}, {"measurement": "MTS 1 Fold Change (B16-F0 treated-B16-F0 untreated)", "setting": "[5]; [10]", "value": 4.205, "unit": "fold"}, {"measurement": "Mdm2 Fold Change (B16-F0 treated-B16-F0 untreated)", "setting": "[5]; [10]", "value": -2.135, "unit": "fold"}, {"measurement": "PTEN Fold Change (B16-F0 treated-B16-F0 untreated)", "setting": "[5]; [10]", "value": 2.795, "unit": "fold"}, {"measurement": "p19 Arf Fold Change (B16-F0 treated-B16-F0 untreated)", "setting": "[5]; [10]", "value": 3.790, "unit": "fold"}, {"measurement": "p21 Fold Change (B16-F0 treated-B16-F0 untreated)", "setting": "[5]; [10]", "value": 2.925, "unit": "fold"}, {"measurement": "p53 Fold Change (B16-F0 treated-B16-F0 untreated)", "setting": "[5]; [10]", "value": 3.025, "unit": "fold"}, {"measurement": "pRB Fold Change (B16-F0 treated-B16-F0 untreated)", "setting": "[5]; [10]", "value": -0.495, "unit": "fold"}, {"measurement": "toxicity", "setting": "[6]", "value": "less than 20%"}]}]}
